The numbers were not newly measured in patent publication US20070281983A1, “Creatine analog prodrugs, compositions and uses thereof” (XenoPort, Inc., priority 2006, published 2007), which cites them from elsewhere.

Assay in series [1]: not given
This is another data set of the same source.

For series [2] the following is noted: healthy volunteers, oral creatine administration.
For series [3] the following is noted: animals, diet containing up to 1% cyclocreatine.

Like-named read-outs stand apart in the source and are kept apart here. Where only a bound is given, the exact number is not on record here.

For `CN(CC(=O)O)C(=N)N.O` [creatine monohydrate], where the note is “athletes and body builders, 2-3 gm/day”, the adverse side effects entry was “without adverse side effects”. With `CN(CC(=O)O)C(=N)NP(=O)(O)O` [creatine phosphate], where the note is “patients with cardiac diseases, intravenous injection up to 8 gm/day”, the adverse side effects entry is given as “without adverse side effects”. Take `CN(CC(=O)O)C(=N)N` [creatine, Creatine]: the “overall increase in creatine phosphate levels” value in series [1] (creatine supplementation, typically takes weeks) is given as < 50%. Besides, in series [1] (following oral creatine supplementation), the “duration of increases in tissue creatine phosphate levels” value was > 14 days. For the same molecule, the “increase in cerebral creatine phosphate” value in series [2] was “about 10%”.

Regarding `NC1=NCCN1CC(=O)O` [cyclocreatine], the adverse effects result in series [3] is recorded as “do not exhibit adverse effects”.
